Measured values published in ChEMBL document CHEMBL5726842, “Bicyclic azaheterocyclobenzylamines as PI3K inhibitors” (2019).

Target: T1, Phosphatidylinositol 4,5-bisphosphate 3-kinase catalytic subunit delta isoform (Homo sapiens, UniProt O00329)
T1 sequence (O00329 whole entry): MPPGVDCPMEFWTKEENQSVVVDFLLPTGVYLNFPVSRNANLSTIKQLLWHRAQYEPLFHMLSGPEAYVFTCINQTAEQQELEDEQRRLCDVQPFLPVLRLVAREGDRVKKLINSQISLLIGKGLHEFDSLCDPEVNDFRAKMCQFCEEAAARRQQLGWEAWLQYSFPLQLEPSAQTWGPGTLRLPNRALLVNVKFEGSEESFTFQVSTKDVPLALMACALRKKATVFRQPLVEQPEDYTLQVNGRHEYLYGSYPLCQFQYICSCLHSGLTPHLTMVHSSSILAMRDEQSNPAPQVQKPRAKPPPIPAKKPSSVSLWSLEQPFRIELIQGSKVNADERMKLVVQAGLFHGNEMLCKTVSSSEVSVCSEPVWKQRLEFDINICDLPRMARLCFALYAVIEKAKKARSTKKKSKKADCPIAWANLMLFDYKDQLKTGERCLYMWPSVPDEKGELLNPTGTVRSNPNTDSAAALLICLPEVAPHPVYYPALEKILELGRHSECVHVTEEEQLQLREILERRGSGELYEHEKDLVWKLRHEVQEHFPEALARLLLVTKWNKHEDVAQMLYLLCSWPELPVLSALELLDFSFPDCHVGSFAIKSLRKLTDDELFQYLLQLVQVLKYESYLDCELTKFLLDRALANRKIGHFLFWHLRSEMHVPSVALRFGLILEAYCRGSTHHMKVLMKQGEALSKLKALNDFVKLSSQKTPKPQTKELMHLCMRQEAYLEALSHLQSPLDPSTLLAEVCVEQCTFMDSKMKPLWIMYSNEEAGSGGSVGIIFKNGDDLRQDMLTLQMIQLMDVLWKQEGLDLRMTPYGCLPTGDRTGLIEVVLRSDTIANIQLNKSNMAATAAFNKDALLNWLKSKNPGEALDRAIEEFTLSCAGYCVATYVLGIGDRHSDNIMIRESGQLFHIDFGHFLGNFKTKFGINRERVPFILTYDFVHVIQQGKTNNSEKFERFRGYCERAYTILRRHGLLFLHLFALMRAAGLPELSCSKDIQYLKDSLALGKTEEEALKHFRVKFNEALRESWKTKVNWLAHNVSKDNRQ
Test: PI3Kdelta Scintillation Proximity Assay: [γ-33P]ATP (10mCi/mL) was purchased from Perkin-Elmer (Waltham, Mass.). Lipid kinase substrate, D-myo-Phosphatidylinositol 4,5-bisphosphate (PtdIns(4,5)P2)D (+)-sn-1,2-di-O-octanoylglyceryl, 3-O-phospho linked (PIP2), CAS 204858-53-7, was purchased from Echelon Biosciences (Salt Lake City, Utah). PI3Kδ (p110δ/p85α) was purchased from Millipore (Bedford, Mass.). ATP, MgCl2, DTT, EDTA, MOPS and CHAPS were purchased from Sigma-Aldrich (St. Louis, Mo.). Wheat Germ Agglutinin (WGA) YSi SPA Scintillation Beads was purchased from GE healthcare life sciences (Piscataway, N.J.).The kinase reaction was conducted in polystyrene 384-well matrix white plate from Thermo Fisher Scientific in a final volume of 25 μL. Inhibitors were first diluted serially in DMSO and added to the plate wells before the addition of other reaction components. The final concentration of DMSO in the assay was 0.5%. The PI3K assays were carried out at room temperature in 20 mM MOPS, pH 6.7, 10 mM MgCl2, 5 mM DTT and CHAPS 0.03%.Reactions were initiated by the addition of ATP, the final reaction mixture consisted of 20 μM PIP2, 20 μM ATP, 0.2 μCi [γ-33P] ATP, 4 nM PI3Kδ. Reactions were incubated for 210 min and terminated by the addition of 40 μL SPA beads suspended in quench buffer: 150 mM potassium phosphate pH 8.0, 20% glycerol. 25 mM EDTA, 400 μM ATP. […]

IC50: < 0.1 µM
Compound: Cc1nn(C(C)c2cc(Cl)c(F)c3c2O[C@H](C)CN(C2CC(C(=O)O)C2)C3)c2ncnc(N)c12 (stereo partly specified)
